Measured values taken from patent publication US8614179B2, “Antibacterial combination therapy for the treatment of gram positive bacterial infections” (E-Therapeutics PLC, priority 2008, dated 2013).
Read-outs that look alike come from different tables or passages of the source.

Legend:
[1] = tested on: Enterococcus faecium (VRE); test: microbe, parasite or virus in culture; assay type: cell-based; details: read-out: MIC
Method: (§1) In example experiments miconazole nitrate, econazole nitrate and clotrimazole were dissolved in DMSO. Colistin, D-cycloserine, fosfomycin and polymixin B were dissolved in water. Nisin was suspended at 10 mg/mL in 0.02 M HCl, and the supernatant fraction following centrifugation at 10,000 g for 10 mins was used in the following experiments.
(§2) Other solvents that may be used include caster oil, pyridine, and 0.9% saline. For IV administration agents may be solubilised in polyethoxylated caster oil, or cyclodextrins such as sulfobutylether7-βcyclodextrin or hydroxypropyl-β-cyclodextrin and lactic acid. Minimum inhibitory concentrations (MICs) of a range of clinical and control bacterial organisms were measured according to BSAC (British Society for Antimicrobial Chemotherapy) guidelines (Andrews 2001), for single agents. The method of determining MICs of imidazole with colistin, D-cycloserine, fosfomycin, polymixin B, or nisin is described briefly as follows. MICs were measured by agar dilution. Kill curves were performed in accordance with the methods of Garrison and Nuemiller, 2007. Briefly kill profiles were generated by logarithmically plotting mean CFU/mL data over time. Total logarithmic reductions in bacterial counts were determined by subtracting 24 h CFU/mL values from starting inocula.
(§3) Stock solutions were prepared at concentrations of 1000 mg/L and 100 mg/L. To determine the MIC of miconazole, the appropriate amount of each stock solution were added to separate Petri dishes give a range of final concentrations (after the addition of 20 mL molten agar): from 0.12 to 32 mg/L. To determine the MICs of miconazole with the specific agent active on a bacterial cell surface, these concentrations of miconazole were used in addition to a fixed sub-inhibitory amount of the agent active on a bacterial cell surface. […] Volumes (20 mL) of cooled molten IST agar (oxoid) was added to each Petri dish and mixed by swirling. After drying, the plates were stored at 4° C. and protected from light. Plates were used on the day of preparation.
(§4) The test organisms were grown overnight in 5 mL IST broth. Using a dilution in 0.9% saline of 1:100, the appropriate agar plates were inoculated using a multipoint inoculator.
(§5) Agar plates and microtitre plates were incubated at 37° C. in air for 18-20 hours.
(§6) The MIC is the minimum amount of an antibiotic at which there is no visible growth of bacteria. Tiny single colonies or faint hazes were not counted as growth. Synergy was reported if the inhibitory effect of the drugs in combination were greater than the sum of the inhibitory effects of each drug singly. The concentration of miconazole, with or without the cell membrane or cell wall active agent, capable of inhibiting the growth of 50% and 90% of the strains tested is reported as the MIC50 and MIC90 respectively. The range of MICs for each group of bacterial strains is also reported.

VISA = test: microbe, parasite or virus in culture; assay type: cell-based; details: Staphylococcus aureus, read-out: MIC
Method: as §1, §2, §3, §4, §5, §6

Clc1ccc(COC(Cn2ccnc2)c2ccc(Cl)cc2Cl)c(Cl)c1 (centres unmarked) [Miconazole, 1-[2-(2,4-Dichlorophenyl)-2-[(2,4-dichlorophenyl)methoxy]ethyl]-1H-imidazole]
MIC ([1]; ATCC 7171 / VRE, Table 4, strain E. faecium ATCC 7171, agents singly or miconazole MIC with 2.5 mg/L nisin): 0.5 µg/mL | MIC ([1]; VRE, Table 4, strain E15 VanAATCC4147 E. faecium, agents singly or miconazole MIC with 2.5 mg/L nisin): 2 µg/mL | MIC ([1]; VRE, Table 4, strain E. faecium VanR B145344C LFE, agents singly or miconazole MIC with 2.5 mg/L nisin): 4 µg/mL | MIC (VISA; Table 4, strain Mu3ex Japan, agents singly or miconazole MIC with 2.5 mg/L nisin): 2 µg/mL | MIC (VISA; Table 4, strain Mu50ex Japan, agents singly or miconazole MIC with 2.5 mg/L nisin): 1 µg/mL | MIC (VISA; Table 4, strain USA/VISA 5827, agents singly or miconazole MIC with 2.5 mg/L nisin): 2 µg/mL | MIC (VISA; Table 4, strain USA/VISA 5836, agents singly or miconazole MIC with 2.5 mg/L nisin): 4 µg/mL | MIC (VISA; Table 4, strain VISA 3900 UK, agents singly or miconazole MIC with 2.5 mg/L nisin): 2 µg/mL
